Each structure is given as a SMILES string.

The IC50 is the midpoint of a concentration-inhibition curve.

The target of this test is T1, human FAAH-1 (Homo sapiens, UniProt O00519).
T1 sequence (O00519 1-579): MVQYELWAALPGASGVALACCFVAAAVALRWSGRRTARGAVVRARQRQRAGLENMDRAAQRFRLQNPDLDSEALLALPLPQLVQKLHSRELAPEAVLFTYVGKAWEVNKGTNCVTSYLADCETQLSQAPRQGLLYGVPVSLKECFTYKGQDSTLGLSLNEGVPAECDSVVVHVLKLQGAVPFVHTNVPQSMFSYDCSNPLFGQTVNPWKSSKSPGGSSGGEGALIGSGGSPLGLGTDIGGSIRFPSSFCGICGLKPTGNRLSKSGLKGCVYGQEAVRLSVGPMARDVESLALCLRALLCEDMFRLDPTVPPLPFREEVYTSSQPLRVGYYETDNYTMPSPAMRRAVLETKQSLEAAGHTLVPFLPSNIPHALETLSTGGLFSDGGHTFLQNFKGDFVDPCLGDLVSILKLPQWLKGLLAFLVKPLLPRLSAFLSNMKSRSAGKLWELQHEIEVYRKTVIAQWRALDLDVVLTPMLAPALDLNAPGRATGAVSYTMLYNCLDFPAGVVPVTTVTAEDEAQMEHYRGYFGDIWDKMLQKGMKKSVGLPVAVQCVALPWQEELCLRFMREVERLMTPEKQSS
The test is described as follows: Whole cell anandamide hydrolysis assay (HeLa clone 5c5 transfected with human FAAH-1). The format is cell-based. The conditions noted are these: HeLa clone 5c5 expressing human FAAH-1; read-out: human FAAH whole cell IC50. Here is the method: FAAH activity was assayed in whole cells using methods disclosed previously (Maccarone et al., 1998 J Biol. Chem. 273:32332 and Bisogno et al., 1997 J Biol. Chem. 272:3315). In addition to the cell lines described in Maccarone et al. and Bisogno et al., MCF7 (ATCC designation HTB-22) and T84 (ATCC designation CCL-248) cell lines were also used in these assays.
cDNA expression clone for human FAAH-1 (in pcDNA3 vector) (Genbank Accession U82535; obtained from Benjamin Cravatt, Scripps Research Institute, La Jolla, Calif.) was linearized by digestion with BglII (New England Biolabs) and transfected by calcium phosphate into human HeLa cells (ATCC catalog #CCL-2). […] Following transfection, a stable HeLa-derived clone, designated 5c5, was isolated by single colony purification and expanded and maintained in modified Eagles medium (MEM; VWR catalog #45000-300) containing 10% fetal bovine serum (FBS), 2 mM L-glutamine, and 0.5 mg/mL G-418 (Sigma catalog #G5013).
Clone 5c5 (50,000 cells in 150 μL) was seeded into 96-well plates and incubated overnight (5% CO2, 37° C.). Media was carefully replaced with 180 μL DMEM/F12 medium (VWR catalog #45000-350) containing 15 mM HEPES, pH 7.4 and 0.1% fatty acid free BSA (Sigma catalog #A0281). Then, 2 μL of 100× desired final concentrations of certain exemplary compounds described herein were made up in DMSO, added to wells containing cells, and plates were incubated at 37° C. for 10 min. Next, 20 μL of 5 μM anandamide (Cayman catalog #90050) spiked with 8 μCi of anandamide-(ethanolamine-1-[^3H]) (American Radiolabeled Chemicals, Inc., catalog #ART 626) was added to the cells and the plates were incubated for an additional 15 min at 37° C. The reactions were terminated by chilling the plates on ice and adding 20 μL of 0.5M of potassium phosphate buffer (adjusted to pH 2.1 with phosphoric acid).
The acidified reactions were transferred to 96-well filter plates (0.25 mL capacity/well, 1.2 micron glass fiber pre-filter packed above 0.65 micron pore-size PVDF membrane, Millipore catalog MSFCN6B50) containing 25 μL charcoal (neutral activated carbon, Fisher Scientific catalog C170-500) per well. Prior to the assay, charcoal was measured and loaded onto the plate using an aluminum 96-well column loading device (Millipore catalog MACL09625). The filter plate was assembled over an empty 96-well plate (Costar) using a centrifuge alignment frame (Millipore catalog MACF09604) to allow for collection of the filtrate in the receiver plate. The charcoal glass-fiber filter plates were pre-washed with methanol by centrifugation 650×g for 10 min). Next, 80 μL of water was added to the wells of the pre-washed 96 well charcoal filter plate. Then, 90 μL of the acidified reaction mixture was added to the water in the wells of the charcoal plate. The samples were centrifuged as above. The substrate remained bound to the charcoal, whereas the [^3H]-ethanolamine product formed flowed through and was transferred to the microplates containing scintillation cocktail and quantified in a micro-plate scintillation counter (Perkin-Elmer Microbeta). Control reactions with either no cells or cells treated with DMSO alone were performed in triplicate and used to define background (no cells) and 100% activity (DMSO alone).
Following subtraction of background radioactivity, data were expressed as percent inhibition relative to 100% activity and fit with a nonlinear regression curve using GraphPad Prism Software (GraphPad Software Inc). IC50 values were calculated from the resulting dose-response curves constrained at top and bottom to 100% and 0%, respectively.
Turning to `COc1ccc2c(c1)c(C(=O)C(=O)Nc1ccnc(OC)c1)c(C)n2Cc1ccc(S(C)(=O)=O)cc1` [Compound 39, 2-(5-methoxy-2-methyl-1-(4-(methylsulfonyl)benzyl)-1H-indol-3-yl)-N-(2-methoxypyridin-4-yl)-2-oxoacetamide], the IC50 lay within 1000 to 10000 nM.

With `COc1ccc(Cn2c(C)c(C(=O)C(=O)Nc3ccnc(OC)c3)c3cc(OC)cnc32)nc1` [Compound 40, 2-(5-methoxy-1-((5-methoxypyridin-2-yl)methyl)-2-methyl-1H-pyrrolo[2,3-b]pyridin-3-yl)-N-(2-methoxypyridin-4-yl)-2-oxoacetamide], the IC50 was below 100 nM.

With `COc1cnc2c(c1)c(C(=O)C(=O)Nc1ccnc(OC)c1)c(C)n2Cc1ccc(Cl)cn1` [Compound 41, 2-(1-((5-chloropyridin-2-yl)methyl)-5-methoxy-2-methyl-1H-pyrrolo[2,3-b]pyridin-3-yl)-N-(2-methoxypyridin-4-yl)-2-oxoacetamide], the IC50 was below 100 nM.

For the compound `COc1cnc2c(c1)c(C(=O)C(=O)Nc1ccnc(OC)c1)c(C)n2Cc1ccc(Cl)cc1Cl` [Compound 42, 2-(1-(2,4-dichlorobenzyl)-5-methoxy-2-methyl-1H-pyrrolo[2,3-b]pyridin-3-yl)-N-(2-methoxypyridin-4-yl)-2-oxoacetamide], the IC50 was below 100 nM.

On to `COc1ccc(Cn2c(C)c(C(=O)C(=O)Nc3ccnc(OC)c3)c3cc(OC)ccc32)nc1` [Compound 43, 2-(5-methoxy-1-((5-methoxypyridin-2-yl)methyl)-2-methyl-1H-indol-3-yl)-N-(2-methoxypyridin-4-yl)-2-oxoacetamide], for which the IC50 was below 100 nM.

Consider `COc1cc(NC(=O)C(=O)c2c(C)n(Cc3ccc(Cl)cc3)c3cc(OC)c(OC)cc23)ccn1` [Compound 44, 2-(1-(4-chlorobenzyl)-5,6-dimethoxy-2-methyl-1H-indol-3-yl)-N-(2-methoxypyridin-4-yl)-2-oxoacetamide], for which the half-inhibitory concentration (IC50) is below 100 nM.

As for `COc1cc(NC(=O)C(=O)c2c(C)n(Cc3ccc(Cl)cc3)c3cccc(OC)c23)ccn1` [Compound 45, 2-(1-(4-chlorobenzyl)-4-methoxy-2-methyl-1H-indol-3-yl)-N-(2-methoxypyridin-4-yl)-2-oxoacetamide], the IC50 was below 100 nM.

Consider `COc1ccc2c(c1)c(C(=O)C(=O)Nc1ccnc(OC)n1)c(C)n2Cc1ccc(Cl)cc1` [Compound 46, 2-(1-(4-chlorobenzyl)-5-methoxy-2-methyl-1H-indol-3-yl)-N-(2-methoxypyrimidin-4-yl)-2-oxoacetamide], for which the IC50 is below 100 nM.

With `COc1ccc2c(c1)c(C(=O)C(=O)Nc1cc(Cl)nc(OC)c1)c(C)n2Cc1ccc(Cl)cc1` [Compound 47, N-(2-chloro-6-methoxypyridin-4-yl)-2-(1-(4-chlorobenzyl)-5-methoxy-2-methyl-1H-indol-3-yl)-2-oxoacetamide], the IC50 is below 100 nM.

`COc1ccc2c(C(=O)C(=O)Nc3ccnc(OC)c3)c(C)n(Cc3ccc(Cl)cc3)c2c1` [Compound 48, 2-(1-(4-chlorobenzyl)-6-methoxy-2-methyl-1H-indol-3-yl)-N-(2-methoxypyridin-4-yl)-2-oxoacetamide]: the IC50 was below 100 nM.

As for `COc1ccc2c(c1)c(C(=O)C(=O)Nc1ccnc(O)c1)c(C)n2Cc1ccc(Cl)cc1` [Compound 50, 2-(1-(4-chlorobenzyl)-5-methoxy-2-methyl-1H-indol-3-yl)-N-(2-hydroxypyridin-4-yl)-2-oxoacetamide], the IC50 fell in the range of 1000 to 10000 nM.

As for `COc1cc(NC(=O)C(=O)c2c(C)n(Cc3ccc(Cl)cc3)c3c(OC)cccc23)ccn1` [Compound 51, 2-(1-(4-chlorobenzyl)-7-methoxy-2-methyl-1H-indol-3-yl)-N-(2-methoxypyridin-4-yl)-2-oxoacetamide], the IC50 fell in the range of 100 to 1000 nM.

For the compound `COc1ccc2c(c1)c(C(=O)C(=O)Nc1ccnc(OC)c1Cl)c(C)n2Cc1ccc(Cl)cc1` [Compound 52, N-(3-chloro-2-methoxypyridin-4-yl)-2-(1-(4-chlorobenzyl)-5-methoxy-2-methyl-1H-indol-3-yl)-2-oxoacetamide], the IC50 was 100 to 1000 nM.

For `COc1ccc2c(c1)c(C(=O)C(=O)Nc1ccnc(OC)c1F)c(C)n2Cc1ccc(Cl)cc1` [Compound 53, 2-(1-(4-chlorobenzyl)-5-methoxy-2-methyl-1H-indol-3-yl)-N-(3-fluoro-2-methoxypyridin-4-yl)-2-oxoacetamide], the IC50 is below 100 nM.

On to `COc1ccc2c(c1)c(C(=O)C(=O)Nc1cc(OC)ncc1F)c(C)n2Cc1ccc(Cl)cc1` [Compound 54, 2-(1-(4-chlorobenzyl)-5-methoxy-2-methyl-1H-indol-3-yl)-N-(5-fluoro-2-methoxypyridin-4-yl)-2-oxoacetamide], for which the IC50 is below 100 nM.

`COc1cc(NC(=O)C(=O)c2c(C)n(Cc3ccc(Cl)cc3)c3cc(Cl)c(OC)cc23)ccn1` [Compound 55, 2-(6-chloro-1-(4-chlorobenzyl)-5-methoxy-2-methyl-1H-indol-3-yl)-N-(2-methoxypyridin-4-yl)-2-oxoacetamide]: the IC50 was below 100 nM.

For the compound `COc1cc(NC(=O)C(=O)c2c(C)n(Cc3ccc(Cl)cc3)c3ccc(OC)c(OC)c23)ccn1` [Compound 56, 2-(1-(4-chlorobenzyl)-4,5-dimethoxy-2-methyl-1H-indol-3-yl)-N-(2-methoxypyridin-4-yl)-2-oxoacetamide], the IC50 was 100 to 1000 nM.

Take `COc1cc(NC(=O)C(=O)c2c(C)n(Cc3ccc(Cl)cc3)c3ccc(OC)c(Cl)c23)ccn1` [Compound 58, 2-(4-chloro-1-(4-chlorobenzyl)-5-methoxy-2-methyl-1H-indol-3-yl)-N-(2-methoxypyridin-4-yl)-2-oxoacetamide]: the half-inhibitory concentration (IC50) was below 100 nM.

As to `COc1cc(NC(=O)C(=O)c2c(C)n(Cc3ccc(Cl)cc3)c3ccc(OC)c(F)c23)ccn1` [Compound 59, 2-(1-(4-chlorobenzyl)-4-fluoro-5-methoxy-2-methyl-1H-indol-3-yl)-N-(2-methoxypyridin-4-yl)-2-oxoacetamide], the IC50 is below 100 nM.

Turning to `COc1cc(NC(=O)C(=O)c2c(C)n(Cc3ccc(Cl)cn3)c3cc(Cl)c(OC)cc23)ccn1` [Compound 60, 2-(6-chloro-1-((5-chloropyridin-2-yl)methyl)-5-methoxy-2-methyl-1H-indol-3-yl)-N-(2-methoxypyridin-4-yl)-2-oxoacetamide], the IC50 was below 100 nM.

Take `COc1cc(NC(=O)C(=O)c2c(C)n(Cc3ccc(Cl)cn3)c3ccc(C)cc23)ccn1` [Compound 61, 2-(1-((5-chloropyridin-2-yl)methyl)-2,5-dimethyl-1H-indol-3-yl)-N-(2-methoxypyridin-4-yl)-2-oxoacetamide]: the half-maximal inhibitory concentration (IC50) is below 100 nM.

With `COc1cc(NC(=O)C(=O)c2c(C)n(Cc3ccc(Cl)cn3)c3ccc([N+](=O)[O-])cc23)ccn1` [Compound 62, 2-(1-((5-chloropyridin-2-yl)methyl)-2-methyl-5-nitro-1H-indol-3-yl)-N-(2-methoxypyridin-4-yl)-2-oxoacetamide], the IC50 was below 100 nM.

Values taken from patent US20150175599A1, “FAAH Inhibitors” (Ironwood Pharmaceuticals, Inc., priority 2010, published 2015).
